Among the data in patent publication US9428456B2, “1-[m-carboxamido(hetero)aryl-methyl]-heterocyclyl-carboxamide derivatives” (Actelion Pharmaceuticals Ltd., priority 2012, dated 2016) are EC50 values, retold here.

CXCR7, sequence (P25106 whole entry, the tested form may be a part): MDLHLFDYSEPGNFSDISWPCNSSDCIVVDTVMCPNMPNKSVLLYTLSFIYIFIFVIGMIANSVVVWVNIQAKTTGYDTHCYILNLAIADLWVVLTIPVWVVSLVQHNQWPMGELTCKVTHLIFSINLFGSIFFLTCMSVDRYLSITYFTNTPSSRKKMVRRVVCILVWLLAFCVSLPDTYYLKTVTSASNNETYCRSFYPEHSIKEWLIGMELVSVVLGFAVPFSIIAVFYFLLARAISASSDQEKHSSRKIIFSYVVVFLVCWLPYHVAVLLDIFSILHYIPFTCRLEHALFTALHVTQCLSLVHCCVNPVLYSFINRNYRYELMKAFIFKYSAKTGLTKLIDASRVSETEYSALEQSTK
CXCR7, sequence (P32121 whole entry partner, the tested form may be a part): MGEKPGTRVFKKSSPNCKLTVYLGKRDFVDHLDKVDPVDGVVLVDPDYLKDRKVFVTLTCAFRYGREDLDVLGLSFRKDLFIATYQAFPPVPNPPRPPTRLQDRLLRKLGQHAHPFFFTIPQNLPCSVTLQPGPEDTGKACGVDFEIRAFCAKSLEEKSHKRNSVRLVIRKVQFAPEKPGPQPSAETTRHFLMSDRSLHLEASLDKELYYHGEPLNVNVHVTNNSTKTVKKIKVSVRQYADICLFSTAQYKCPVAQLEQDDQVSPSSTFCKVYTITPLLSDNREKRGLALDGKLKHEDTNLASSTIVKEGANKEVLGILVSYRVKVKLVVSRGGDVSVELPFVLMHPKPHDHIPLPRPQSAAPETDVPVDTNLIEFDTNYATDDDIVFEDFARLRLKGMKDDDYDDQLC

This test has as its target CXCR7 (Homo sapiens (Human), UniProt P25106). The experiment in a line: PathHunter CHO-K1 CXCR7 b-arrestin assay (agonistic activity). In kind it is cell-based. The settings on record: PathHunter CHO-K1 CXCR7 b-arrestin cell line. As to the method: The CXCl12 receptor and CXCR7 agonistic activities of the compounds of formula (I) are determined in accordance with the following experimental method.
The assay is using the PathHunter™ CHO-K1 CXCR7 b-arrestin cell line from DiscoverX. The system is based on the Enzyme Fragment Complementation Technology. Two complementing fragments of the b-galactosidase enzyme are expressed within stably transfected cells. The larger portion of b-gal, termed EA for Enzyme Acceptor, is fused to the C-terminus of b-arrestin 2. The smaller fragment, termed ProLink™ tag, is fused to CXCR7 at the C-terminus. Upon activation, b-arrestin is recruited which forces the interaction of ProLink and EA, allowing complementation of the two fragments of b-gal and the formation of a functional enzyme which is capable of hydrolysing the substrate and generating a chemiluminescent signal.
CHO-K1 CXCR7 b-arrestin cells are detached from culture dishes with a cell dissociation buffer (Invitrogen, #13151-014) and collected in growing medium (F12 HAMS 90% (v/v)/FCS 10% (v/v), Penicilin/streptomycin 1% (v/v)). 5000 cells per well (in 20 μl) are seeded in a 384 well plate (white-walled, clear bottom; BD Falcon #353274). The plate is incubated at 37° C./5% CO2 for 24 hours. Medium is then replaced by 20 μl OPTIMEM (Invitrogen #31985) for 3 to 4 hours. Test compounds are dissolved at 10 mM in DMSO and serially diluted in DMSO to 200× of the final concentration for dose response curves. Compounds are then diluted 1:33.3 in HBSS1×. 5 μl/well of HBSS1×/20 mM HEPES/0.2% BSA are added to the assay plate followed by addition of 5 μl/well of diluted compounds. CXCL12 (Peprotech #300-28A) may be used as a reference agonist. The plate is incubated for 90 minutes at 37° C. 12 μl of detection reagent (Path Hunter Detection Kit, DiscoveRx, #93-0001) is transferred to the assay plate and to the plate is incubated for 1 hour at room temperature. Luminescent signal is read in a microplate reader (FLUOstar Optima, bmg). The calculated EC50 values may fluctuate depending on the daily cellular assay performance. Fluctuations of this kind are known to those skilled in the art. Average EC50 values from several measurements are given as geometric mean values.
`O=C(Nc1cccc(CN2CCC(C(=O)NC3CCCCC3)CC2)c1)c1ccc(Cl)nc1Cl` [Example 1.091] yielded an EC50 of 12 nM. The same measure for `O=C(Cc1cccc(Cl)c1)Nc1cccc(CN2CCC(C(=O)NC3CCCCC3)CC2)c1` [Example 1.024]: 10 nM. In the case of `CC(C)(C)NC(=O)C1CCN(Cc2cccc(NC(=O)c3cncc(C(F)(F)F)c3)c2)CC1` [Example 1.230], the EC50 was 1 nM. To `O=C(Nc1cccc(CN2CCC(C(=O)NC3CCCCC3)CC2)c1)c1ccc(Cl)c2c1CCO2` [Example 1.143] belongs 5 nM; to `CC(C)(C)NC(=O)C1CCN(Cc2cccc(NC(=O)Cc3c(F)ccc(Cl)c3Cl)c2)CC1` [Example 1.253], 4 nM.

Regarding `Cc1cc(C(=O)Nc2cccc(CN3CCC(C(=O)NC4CCCCC4)CC3)c2)nc(N(C)C)n1` [Example 1.088], the EC50 was 24 nM.

As to `CC(C)(C)NC(=O)C1CCN(Cc2cccc(NC(=O)c3ccc4snnc4c3)c2)CC1` [Example 1.355], the EC50 stood at 3 nM. To `CC(C)Cc1cc(C(=O)Nc2cccc(C(C)N3CCC(C(=O)NC4CCCCC4)CC3)c2)n(C)n1` (racemic) [Example 1.189] belongs 15 nM; to `O=C(Nc1cccc(CN2CCC(C(=O)NC3CCCCC3)CC2)c1)c1ccc(Cl)cn1` [Example 1.094], 1 nM; to `CC(C)(C)NC(=O)C1CCN(Cc2cccc(NC(=O)c3ccc4ncsc4c3)c2)CC1` [Example 1.353], 3 nM. The same measure for `Cc1cccc(C(=O)Nc2cccc(CN3CCC(C(=O)NC4CCCCC4)CC3)c2)c1` [Example 1.100]: 3 nM; for `CCc1ccc(NC(=O)c2cncc(C)c2)cc1CN1CCC(C(=O)NC(C)(C)C)CC1` [Example 1.333]: 57 nM.

The molecule `O=C(Cc1ccccc1)Nc1cccc(CN2CCC(C(=O)NC3CCCCC3)CC2)c1` [Example 1.011] yielded an EC50 of 7 nM. The same measure for `Cc1ccc(C(=O)Nc2cccc(CN3CCC(C(=O)NC4CCCCC4)CC3)c2)c(Cl)n1` [Example 1.070]: 40 nM; for `Cn1cc(CC(=O)Nc2cccc(CN3CCC(C(=O)NC4CCCCC4)CC3)c2)c2ccccc21` [Example 1.030]: 18 nM. The same measure for `Cc1cc(C(=O)Nc2cccc(C(C)N3CCC(C(=O)NC4CCCCC4)CC3)c2)c2cnn(C(C)C)c2n1` (racemic) [Example 1.186]: 86 nM. The same measure for `O=C(Nc1cccc(CN2CCC(C(=O)NC3CCCCC3)CC2)c1)c1cncc(C(F)(F)F)c1` [Example 1.058]: 5 nM; for `CC(C)(C)NC(=O)C1CCN(Cc2cccc(NC(=O)c3ccccc3C(F)(F)F)c2)CC1` [Example 1.239]: 17 nM; for `O=C(Nc1cccc(CN2CCC(C(=O)NC3CCCCC3)CC2)c1)C1CCCC1` [Example 1.017]: 29 nM.

Molecule `CC(C)(C)NC(=O)C1CCN(Cc2cccc(NC(=O)c3ccc(C(F)(F)F)cn3)c2)CC1` [Example 1.229] registered an EC50 of 0.5 nM.

In the case of `O=C(Nc1ccc(Cl)c(CN2CCC(C(=O)NC3CCCC3)CC2)c1)c1cccc(C(F)(F)F)n1` [Example 1.218], a half-maximal response (EC50) required 2 nM. Molecule `O=C(Nc1cccc(CN2CCC(C(=O)NC3CCCCC3)CC2)c1)c1cnc2[nH]ccc2c1` [Example 1.076] returned an EC50 of 26 nM. `O=C(Nc1cccc(CN2CCC(C(=O)NC3CCCCC3)CC2)c1)c1cccc(Cl)c1` [Example 1.033] displayed an EC50 of 2 nM. `CC(C)CN(C)C(=O)C1CCN(Cc2cccc(NC(=O)c3cncc(F)c3)c2)CC1` [Example 1.277] came in with an EC50 of 18 nM.

The molecule `O=C(Nc1cccc(CN2CCC(C(=O)NC3CCCCC3)CC2)c1)c1cc(C(F)(F)F)ccn1` [Example 1.155] registered an EC50 of 12 nM. For `Cc1cnc(C(=O)Nc2cccc(CN3CCC(C(=O)NC4CCCCC4)CC3)c2)cn1` [Example 1.142], the EC50 turned out to be 2 nM. The molecule `O=C(Nc1cccc(CN2CCC(C(=O)NC3CCCCC3)CC2)c1)c1cccnc1C(F)(F)F` [Example 1.059] had an EC50 of 393 nM. The same measure for `O=C(Nc1cccc(CN2CCC(C(=O)NC3CCCCC3)CC2)c1)c1ccc(C(F)(F)F)nc1` [Example 1.068]: 7 nM; for `CC(C)(C)NC(=O)C1CCN(Cc2nccc(NC(=O)c3cccc(C(F)(F)F)n3)n2)CC1` [Example 1.286]: 265 nM. For `COc1ncccc1C(=O)Nc1cccc(CN2CCC(C(=O)NC3CCCCC3)CC2)c1` [Example 1.069], the midpoint of the response, the EC50, lay at 10 nM. The same measure for `CC(C)(C)NC(=O)C1CCN(Cc2cccc(NC(=O)Cc3c(Cl)cccc3Cl)c2)CC1` [Example 1.245]: 1 nM. Molecule `O=C(Nc1ccnc(CN2CCC(C(=O)NC3CCCCC3)CC2)n1)c1cccc(C(F)(F)F)n1` [Example 1.284] came in with a concentration giving a half-maximal response (EC50) of 223 nM.

`CC(C)(C)NC(=O)C1CCN(Cc2cccc(NC(=O)c3ccc(C(F)(F)F)cc3)c2)CC1` [Example 1.238] showed an EC50 of 4 nM. The molecule `CC(C)(C)NC(=O)C1CCN(Cc2cccc(NC(=O)Cc3c(F)ccc(F)c3Cl)c2)CC1` [Example 1.254] yielded an EC50 of 2 nM. To `CC(c1cccc(NC(=O)c2ccc(Cl)cn2)c1)N1CCC(C(=O)NC2CCCCC2)CC1` (racemic) [Example 1.168] belongs 2 nM; to `Cc1cc(Cl)ccc1C(=O)Nc1cccc(CN2CCC(C(=O)NC3CCCCC3)CC2)c1` [Example 1.121], 5 nM; to `O=C(Nc1cccc(CN2CCC(C(=O)NC3CCCCC3)CC2)c1)c1cncc(F)c1` [Example 1.056], 7 nM. Consider `Cc1cncc(C(=O)Nc2cccc(CN3CCCC(C(=O)NC4CCCCC4)CC3)c2)c1` (racemic) [Example 1.291], for which the EC50 came to 134 nM. In the case of `O=C(Nc1ccc(Cl)c(CN2CCC(C(=O)NC3CCCC3)CC2)c1)c1cnc2ccccc2c1` [Example 1.222], a half-maximal effect (EC50) was put at 3 nM. `Cc1cncc(C(=O)Nc2cccc(CN3CCC(C(=O)NC4CCCCC4)CC3)c2)c1` [Example 6.001, N-(3-((4-(cyclohexylcarbamoyl)piperidine-1-yl)d2methyl)phenyl)-5-methylnicotinamide] displayed an EC50 of 5 nM. The same measure for `O=C(Nc1cccc(CN2CCC(C(=O)NC3CCCCC3)CC2)c1)c1ccc(Cl)c(F)c1` [Example 1.132]: 10 nM; for `CC(C)(C)NC(=O)C1CCN(Cc2cccc(NC(=O)Cc3ccc(F)cc3Cl)c2)C1` (racemic) [Example 2.097, rac-1-{3-[2-(2-Chloro-4-fluoro-phenyl)-acetylamino]-benzyl}-pyrrolidine-3-carboxylic acid tert-butylamide]: 37 nM; for `O=C(Nc1cccc(CN2CCC(C(=O)NC3CCCCC3)CC2)c1)c1ccc2ccccc2c1` [Example 1.007]: 6 nM. The molecule `O=C(Nc1cccc(CN2CCC(C(=O)NC3CCCCC3)CC2)c1)c1cc(Cl)ccc1Cl` [Example 1.137] displayed an EC50 of 8 nM. The same measure for `O=C(Cc1ccccn1)Nc1cccc(CN2CCC(C(=O)NC3CCCCC3)CC2)c1` [Example 1.013]: 20 nM. Molecule `CC(c1cccc(NC(=O)c2cccc(C(F)(F)F)n2)c1)N1CCC(C(=O)NC2CCCCC2)CC1` (racemic) [Example 1.187] registered an EC50 of 7 nM. `Cc1ccc(C(=O)Nc2cccc(CN3CCC(C(=O)NC4CCCCC4)CC3)c2)c(C)c1` [Example 1.111] registered an EC50 of 4 nM. To `O=C(Nc1cccc(CN2CCC(C(=O)NC3CCCCC3)CC2)c1)c1cc(F)c(Cl)nc1Cl` [Example 1.089] belongs 15 nM. To `CC(C)CN(C)C(=O)C1CCN(Cc2cccc(NC(=O)c3ccc(C(F)(F)F)cn3)c2)CC1` [Example 1.275] belongs 3 nM; to `CC(C)(C)NC(=O)C1CCN(Cc2cccc(NC(=O)c3ccc4ccccc4n3)c2)CC1` [Example 1.235], 0.9 nM; to `Cc1cc(C(=O)Nc2cccc(CN3CCC(C(=O)NC4CCCCC4)CC3)c2)cc(C2CCCC2)n1` [Example 1.054], 41 nM.

The molecule `COc1ccc(C(=O)Nc2cccc(CN3CCC(C(=O)NC4CCCCC4)CC3)c2)cc1F` [Example 1.123] had an EC50 of 4 nM.

Take `Cc1nc2cc(C(=O)Nc3cccc(CN4CCC(C(=O)NC(C)(C)C)CC4)c3)ccc2s1` [Example 1.354]: the EC50 worked out at 108 nM. The same measure for `CCC(C)(C)NC(=O)C1CCN(Cc2cccc(NC(=O)c3cccc(C(F)(F)F)[n+]3[O-])c2)CC1` [Example 1.346]: 1 nM.

`COc1ccc(CN2CCC(C(=O)NC(C)(C)C)CC2)cc1NC(=O)c1ccc(F)cc1` [Example 1.306] had a 50% effective concentration (EC50) of 4 nM.
